Laboratory results published in patent US7371780B2, “Use of calphostin C to treat drug-resistant tumor cells” (priority 2003, dated 2008).

What was measured:
[1] = system: human 293T embryonic kidney cells; test: Death and cytoplasmic vacuolization, 293T; type: cell-based; settings: data not shown
MCF-7TAX cells = test: Drug uptake, MCF-7TAX; type: cell-based, human
Description: (§1) FIG. 5 illustrates the effect of calphostin C (Cal-C) on drug uptake in MCF-7 (square symbols), MCF-7TAX (diamond symbols) and MCF-7DOX (triangular symbols) cells. After one-day growth, the cells were left untreated (closed symbols) or treated with 100 nM calphostin C for 2 h with light activation (open symbols). Cells were then washed and the medium replaced with medium containing 2 μM of doxorubicin (A) or [^3H]-paclitaxel (B). The cells were then trypsinized and drug accumulation measured by flow cytometry (A) or liquid scintillation counting (B) at indicated time points. The figures are representative of three independent experiments.

MCF-7DOX cells [2] = test: Cytoplasmic shrinkage by hematoxylin/eosin staining, MCF-7DOX; type: cell-based, human
Description: (§2) For staining with hematoxylin and eosin, cells were grown in a six-well culture plate with each well containing a Snowcoat X-Tra™ microscope slide (Surgipath Laboratories, MB) immersed in 3 ml of H21 medium. When the cells reached 50% confluence, they were treated with 0-300 nM calphostin C, followed by a 2 hour exposure of the cultures to fluorescent light as described above. After light activation, the cells were placed in a 37° C. humidified incubator with 5% CO2 and incubated for an additional 22 hours. The cells were then stained with hematoxylin and eosin using a previously described procedure. Briefly, the media was removed from cell cultures and the cells that remained adhered to the slides were washed with PBS, fixed in formalin:acetone (1:2) for 2 min, and allowed to air dry for 10 min. After washing with distilled water, 250 μl of hematoxylin solution (BDH Chemicals, Toronto, ON) was placed on each slide and allowed to incubate with the cells for 5 min. The slides were then washed with distilled water, Scott's tap water (20 g MgSO4.7H2O, 1.5 g NaHCO3 in 1 L H2O), and a final wash with distilled water. The cells on the slides were then stained for 5 min in 250 μl of eosin solution (100 ml of 1% eosin, 10 ml of 1% phyloxine, 4 ml of glacial acetic acid, and 780 ml of 95% ethanol). The cells were then dehydrated by washing three times in 95% ethanol and twice in 100% ethanol. The small slide was then mounted on a standard microscope glass slide, and 10 randomly selected fields were viewed at 100× magnification and photographed. For each concentration of calphostin C, the total number of dead cells in each field was ascertained and expressed relative to the total number of cells in the field.

[3] = system: Chinese hamster ovary (CHO) cells; test: Death and cytoplasmic vacuolization, CHO; type: cell-based; settings: data not shown
MCF-7 cells = test: Cytoplasmic shrinkage by hematoxylin/eosin staining, MCF-7; type: cell-based, human
Description: as §2

MCF-7DOX cells [4] = test: Microscopic cell morphology, MCF-7DOX; type: cell-based, human; settings: data not shown
Description: For microscopic observation, cells were seeded onto standard glass coverslips in 10 cm tissue culture plates with 10 ml of H21 medium and grown for 2 days until 40-50% confluence was obtained. After treatment with paclitaxel, doxorubicin or calphostin C, the cells on the glass coverslips were washed twice with PBS (2.7 mM KCl, 1.0 mM KH2PO4, 137 mM NaCl, 10 mM Na2HPO4, pH 7.4) and stained with acridine orange/ethidium bromide (each at 4 μg/ml in PBS) for 10 min at 37° C.. The coverslips were then washed three times in PBS and mounted onto standard glass slides for morphological evaluation. For propidium iodide (PI) staining, the cells on coverslips were washed twice with PBS and fixed in methanol (cooled to −20° C.) for 20 min. Thirty μl of propidium iodide (PI) staining solution (100 μg/ml PI, 0.1% sodium citrate, 100 μg/ml RNase A and 0.3% Nonidet P-40) were then applied to the coverslips for 5 min. […] The cells were then examined using a Zeiss Axiovert 100 inverted fluorescence microscope. […] For each sample, the number of dead cells was determined by visualization after ethidium bromide staining, whereby only dead cells which have lost membrane integrity allow entry of cell-impermeable ethidium bromide into cells to complex with DNA and induce bright red fluorescence. […] The images were recorded and overlayed using Northern Eclipse software (Empix Imaging Inc., Mississauga, ON).

MCF-7DOX cells [5] = test: Drug uptake, MCF-7DOX; type: cell-based, human
Description: as §1

[6] = 100 nM calphostin C 2 h with light, then 2 μM doxorubicin

Structure (SMILES): COc1c(C[C@@H](C)OC(=O)Oc2ccc(O)cc2)c2c3c(C[C@@H](C)OC(=O)c4ccccc4)c(OC)c(=O)c4c(O)cc(OC)c(c5c(OC)cc(O)c(c1=O)c52)c43 [calphostin C]
- induction of death and cytoplasmic vacuolization [1]: induce both death and cytoplasmic vacuolization
- effect on doxorubicin uptake (MCF-7TAX cells; [6]): little ability to re-establish doxorubicin uptake
- effect on paclitaxel uptake (MCF-7TAX cells; 100 nM calphostin C, early time points, back to control by 18 hours): slightly restored
- concentration at which cytoplasmic shrinkage was first observed (MCF-7DOX cells [2]): 100 nM
- concentration required for complete cytoplasmic shrinkage (MCF-7DOX cells [2]): 300 nM
- percentage of cells exhibiting cytoplasmic shrinkage (MCF-7DOX cells [2]; 25 nM calphostin C): remained unchanged
- induction of death and cytoplasmic vacuolization [3]: induce both death and cytoplasmic vacuolization
- concentration required for complete cytoplasmic shrinkage (MCF-7 cells): 300 nM
- percentage of cells exhibiting cytoplasmic shrinkage (MCF-7 cells; 25 nM calphostin C, 2 h light, 24 h): 20%
- percentage of cells exhibiting cytoplasmic shrinkage (MCF-7 cells; 50 nM calphostin C): 35%
- concentration giving cytoplasmic vacuolization equal to MCF-7 and MCF-7TAX cells at 50 nM (MCF-7DOX cells [4]): 300 nM
- effect on paclitaxel uptake (MCF-7DOX cells [5]; 100 nM calphostin C): little effect
- effect on doxorubicin uptake (MCF-7DOX cells [5]; [6]): little ability to re-establish doxorubicin uptake
